Entries after “also recorded” stand apart in the source; their conditions may differ.

The term share remaining denotes what is left of the initial amount, in per cent.

Series [1] can be described thus: In vitro stability in mouse plasma. In kind it is in vitro ADME. The procedure:
(§1) In vitro stability studies were conducted using our previously published methods naive CD1 mouse plasma or liver homogenate. For liver homogenate stability study, washed mouse liver was diluted 10-fold in 0.1 M potassium phosphate buffer and homogenized using probe sonication. Crude homogenate was then aliquoted to 1 mL, and the homogenate was spiked with 10 µM compound. The plasma stability of the compounds was determined by spiking (10 µM) in 1 mL of plasma and incubating in an orbital shaker at 37°C. All the stability studies were conducted at predetermined times (0, 30, and 60 min), where 100 µL aliquots of the mixture in triplicate were removed and the reaction was quenched by the addition of three times the volume of ice-cold acetonitrile spiked with the internal standard (losartan: 0.5 µM). The samples were vortex-mixed for 30 s and centrifuged at 10,000g for 10 min at 4°C. An amount of 50 µL of the supernatant was diluted with 50 µL of water and transferred to a 250 µL polypropylene vial sealed with a Teflon cap. Compound disappearance was monitored over time using liquid chromatography and tandem mass spectrometry (LC–MS/MS). Paired t-tests were used to determine statistical significance between 0 and 60 min time points.

A short description of series [2]: In vitro stability in mouse liver microsomes. In kind it is in vitro ADME. On the procedure: Figure S1. Percent BAP or pro-hpAP remaining after incubation in mouse liver microsomes (+/-NADPH) (a), mouse plasma (b), or mouse liver homogenates (c). Data shown as bar graphs in Figure 4.
In general terms: Liver microsomes are a subcellular fraction often used to study metabolism.

Series [3] can be described thus: In vitro stability in mouse liver homogenate. To be noted: mouse liver homogenate (10%, wt/vol), 10 µM. In kind it is in vitro ADME. On the procedure: as §1
The test system of the next series is UPEC strain CFT073. Nature of the series: In vivo ascending UTI assay (prophylaxis). More on the design: species or system Escherichia coli in C3H/HeN mice. To be noted: for median log reduction of bacterial burden vs PBS-treated cohort: bladder, 48 h. On the procedure:
Female mice were injected subcutaneously in the flank with 2.5 mg of MPA (150 mg/mL, diluted in sterile saline) 7 days prior to inoculation ([60]). Mice were dosed vaginally with 30 µL of sterile saline lavage fluid immediately prior to inoculation. The fluid was collected, placed on a slide, heat fixed, Gram stained, and assessed to determine the estrous cycle stage of each mouse as previously described ([61]).
Six-week-old female C3H/HeN mice were inoculated with UPEC as previously described ([28]). Briefly, UPEC strain CFT073 (ATCC designation: BAA-2503) was streaked on LB agar from a frozen glycerol stock and grown overnight at 37°C. Following overnight incubation, three to five colonies were picked and subcultured into 10 mL of sterile LB, and the culture was incubated statically overnight at 37°C. The culture was diluted 1:1,000 (25 µL of culture into 25 mL of sterile LB) and incubated statically for 24 h at 37°C to promote the growth of bacteria with type-1 pili expression. The resulting 25 mL inoculum was centrifuged at 4,200 × g for 20 min at 4°C. The supernatant was removed, and the cell pellet was resuspended in 10 mL of sterile PBS. The OD600 was adjusted to 1.0 by the addition of PBS to give a cell density of approximately 4 × 10^7 to 1 × 10^8 CFUs per 50 µL, the volume of the inoculum. Cell counts were validated by plating a dilution of the inoculum solution and enumerating following overnight incubation.
Urinary catheters were assembled by threading 30G needles with 0.28 mm inner diameter polyethylene tubing to create a soft tip. Catheter tips were dipped in lubricant immediately before inoculation. During catheterization, urine was aspirated from the bladder prior to inoculation with 50 µL of UPEC inoculum, prepared as described above. Mice were housed with their drug-dosed cohort and dosed intraperitoneally according to each experiment’s dosing regimen as shown in the figures. Dosing regimen for BAP trial 1 (Fig. 7b)consisted of IP administration of BAP (300 mg/kg) 30 min before inoculation; dosing regimen for BAP trial 2 (Fig. 7c) consisted of IP administration of BAP (600 mg/kg) 30 min before inoculation followed with IP doses of BAP (300 mg/kg) at 1 and 3 hpi; dosing regimen for BAP trial 3 and the pro-hpAP trial (Fig. 7d) consisted of IP administration of BAP (600 mg/kg) or pro-hpAP (60 mg/kg) 30 min before inoculation followed with IP doses of BAP (300 mg/kg) or pro-hpAP (30 mg/kg) at 1, 3, and 24 hpi; dosing regimen 4 (Fig. S3) consisted of IP administration of BAP (600 mg/kg) 30 min before inoculation followed with IP doses of BAP (300 mg/kg) at 1, 3, 6, 10, 22, 26, and 30 hpi. Gentamicin diluted in sterile PBS was used as a positive control and was administered to mice at 10 mg/kg IP 30 min prior to inoculation in all experiments.
After 48 h, mice were anesthetized by isoflurane inhalation and sacrificed by cervical dislocation. Bladders were harvested, added to 1 mL sterile PBS, and homogenized with a hand-held homogenizer in a biosafety cabinet. Tissue homogenates were serially-diluted (five 10-fold dilutions), and 100 µL of each dilution was plated onto LB plates and enumerated after a 24 h incubation at 37°C, yielding an effective detection range of 1 × 10^2–150 × 10^8 CFU/mL. In a few cases, bacterial counts fell below the lower limit of detection or above the upper limit of detection and are reported as 0 CFU/mL or conservatively 200 × 10^8 CFU/mL, respectively.

The next series has as its system E. coli. To be noted: cited from earlier work.

On to `CCCCOP(=O)(O)C(C)=O` [BAP, butyl acetylphosphonate], for which the “% remaining in plasma” value in series [1] (10 µM, 37°C, at 1 h) was 79%. Besides, in series [2] (at 1 h), the “% remaining in liver microsomes” value is 94%. The “% remaining in liver homogenate” value in series [3] (at 1 h) was found to be 22%. Besides, in the series on UPEC strain CFT073 (BAP single 300 mg/kg IP dose 30 min prior to inoculation, 300 mg/kg), the “protection against UTI” value is “not adequate to provide protection against UPEC infection; also recorded: provides no protection against UTI”. Besides, the “median log reduction of bacterial burden vs PBS-treated cohort” value in the series with UPEC strain CFT073 (BAP trial 1: 300 mg/kg IP 30 min before inoculation (1 dose)) was “no reduction”; with UPEC strain CFT073 (BAP trial 2: 600 mg/kg IP 30 min before inoculation, 300 mg/kg at 1 and 3 hpi (3 doses)), 1.05 log; in the series on UPEC strain CFT073 (BAP trial 3: 600 mg/kg IP 30 min before inoculation, 300 mg/kg at 1, 3 and 24 hpi (4 doses)), 1.14 log. Also, the “log reduction of bacterial burden vs PBS control” value in the series with UPEC strain CFT073 (regimen 4: BAP 600 mg/kg IP 30 min before inoculation, 300 mg/kg at 1, 3, 6, 10, 22, 26 and 30 hpi) amounted to 1.32 log. Besides, the MICs result with E. coli (under nutrient limitation) was “low micromolar range”.
As to `C#CCCOP(=O)(O)C(=C)NC(=O)C(CC(C)C)NC(=O)CN` (centres unmarked) [pro-hpAP], the fraction remaining at 1 h, 10 µM in series [1] (CD1, 37°C) turned out to be 95%. This compound returned a fraction remaining at 1 h in series [2] of 90%. For the same compound, the “prodrug remaining in liver homogenate” value in series [3] (30 min incubation) is “no prodrug remaining”. Further, the “median log reduction of bacterial burden vs PBS-treated cohort” value with UPEC strain CFT073 (pro-hpAP 60 mg/kg IP 30 min before inoculation, 30 mg/kg at 1, 3 and 24 hpi (4 doses)) was 1.42 log. Moreover, the MIC in the series with E. coli (standard nutrient limitation conditions) is reported as ~ 20 nM.

Values taken from publication PMC10986598, “Investigating inhibitors of 1-deoxy-D-xylulose 5-phosphate synthase in a mouse model of UTI” (Microbiology Spectrum, 2024).
